From ChEMBL document CHEMBL1177772, “Design and synthesis of benzoazepin-2-one analogs as allosteric binders targeting the PIF pocket of PDK1” (Bioorg Med Chem Lett, 2010) come the findings set out here.

pEC50: −log10 of the molar value. Residues, ends and D or L forms follow the SMILES beside them.

For one experiment, the target named is T1, 3-phosphoinositide-dependent protein kinase 1 (Homo sapiens, UniProt O15530).
T1 sequence (O15530 whole entry): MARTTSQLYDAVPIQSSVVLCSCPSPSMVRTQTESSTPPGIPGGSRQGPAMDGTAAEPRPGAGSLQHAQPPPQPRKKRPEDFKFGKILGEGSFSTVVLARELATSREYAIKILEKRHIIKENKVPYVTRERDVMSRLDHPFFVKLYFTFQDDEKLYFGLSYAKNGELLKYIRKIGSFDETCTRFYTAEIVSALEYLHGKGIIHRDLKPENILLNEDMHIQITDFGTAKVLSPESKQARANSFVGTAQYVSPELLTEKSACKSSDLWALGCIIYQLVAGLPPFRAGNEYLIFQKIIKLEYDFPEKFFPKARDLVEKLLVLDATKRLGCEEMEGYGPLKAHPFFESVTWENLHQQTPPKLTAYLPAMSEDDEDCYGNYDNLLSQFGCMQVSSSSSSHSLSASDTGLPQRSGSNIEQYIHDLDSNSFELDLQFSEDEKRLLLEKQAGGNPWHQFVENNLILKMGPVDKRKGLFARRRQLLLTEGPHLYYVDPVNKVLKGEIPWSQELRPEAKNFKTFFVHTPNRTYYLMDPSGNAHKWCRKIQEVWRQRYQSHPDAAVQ
As to the kind of experiment: Displacement of PIFtide from His-tagged PDK1 by HTRF assay.
Conditions: not given; call rule not given here
On the technique in general: TR-FRET usually uses a lanthanide donor and a delayed reading to cut background.
On to `COC(=O)CN1C(=O)N(Cc2ccccc2)CCc2ccccc21`, for which the EC50 result was “Not Active”. Take `COC(=O)CN1C(=O)C(NS(=O)(=O)c2ccccc2)CCc2ccccc21` (stereo unspecified): the EC50 result is recorded as “Not Active”. On the same count and under the same terms, the value for `O=C(O)CN1C(=O)N(Cc2ccccc2)CCc2ccccc21` was “Not Active”. In the case of `O=C(O)CN1C(=O)C(NS(=O)(=O)c2ccccc2)CCc2ccccc21` (stereo unspecified), the EC50 result was “Not Active”. `O=C(O)CN1C(=O)C(Oc2ccccc2)CCc2ccccc21` (stereo unspecified): the EC50 result is reported as “Not Active”.

`COC(=O)CN1C(=O)C(Sc2ccccc2)CCc2ccccc21` (stereo unspecified): the EC50 result is “Not Active”. The same measure, in the same setting: under `O=C(O)CN1C(=O)C(NC(=O)c2ccccc2)CCc2ccccc21` (stereo unspecified) stands “Not Active”; under `O=C(O)CN1C(=O)C(OC(=O)c2ccccc2)CCc2ccccc21` (stereo unspecified), “Not Active”; under `COC(=O)CN1C(=O)C(Oc2ccccc2)CCc2ccccc21` (stereo unspecified), “Not Active”. Still for that read-out and setting: the value for `COC(=O)CN1C(=O)C(OC(=O)c2ccccc2)CCc2ccccc21` (stereo unspecified) was “Not Active”.

As to `COC(=O)CN1C(=O)C(Nc2ccccc2)CCc2ccccc21` (stereo unspecified), the EC50 entry is listed as “Not Active”. As for `COC(=O)CN1C(=O)C(NC(=O)c2ccccc2)CCc2ccccc21` (stereo unspecified), the EC50 entry is “Not Active”.

Still in this experiment, the particulars now being: read-out: EC50.
Take `O=C(O)CN1C(=O)C(Sc2ccccc2)CCc2ccccc21` (stereo unspecified): the pEC50 (in general, the EC50 on a negative log10 scale, so that one unit is a factor of ten) is 4.00. Still for that read-out and setting: under `O=C(O)CN1C(=O)C(Sc2ccc(C(=O)O)cc2)CCc2ccccc21` (stereo unspecified) stands 3.73; under `O=C(O)CN1C(=O)C(Sc2ccc(Cl)cc2)CCc2ccccc21` (stereo unspecified), 4.64. Consider `O=C(O)CSC(CC(=O)c1ccc(Cl)cc1)c1ccccc1` (stereo unspecified), for which the pEC50 was 3.88.

Regarding `O=C(O)CN1C(=O)C(Nc2ccccc2)CCc2ccccc21` (stereo unspecified), the pEC50 was 3.05. Same read-out and setting: under `COc1ccc(SC2CCc3ccccc3N(CC(=O)O)C2=O)cc1` (stereo unspecified) stands 4.28; under `O=C(O)CN1C(=O)C(Sc2c(Cl)cccc2Cl)CCc2ccccc21` (stereo unspecified), 4.35. Take `O=C(O)CN1C(=O)C(Sc2ccc(Cl)cc2Cl)CCc2ccccc21` (stereo unspecified): the pEC50 was 4.12. In the case of `CC[C@H](C)[C@H](NC(=O)[C@H](Cc1ccc(O)cc1)NC(=O)[C@H](CC(=O)O)NC(=O)[C@H](Cc1ccccc1)NC(=O)[C@H](CC(=O)O)NC(=O)[C@H](CCCNC(=N)N)NC(=O)[C@H](Cc1ccccc1)NC(=O)[C@H](CCSC)NC(=O)[C@H](CCC(=O)O)NC(=O)[C@@H](N)CCC(N)=O)C(=O)N[C@@H](C)C(=O)N[C@@H](CC(=O)O)C(=O)N[C@@H](Cc1c[nH]c2ccccc12)C(=O)O` (H-QEMFRDFDYIADW-OH), the pEC50 was 5.00.
